Source: patent US20040002506A1, “Novel class of cytodifferentiating agents and histone deacetylase inhibitors, and methods of use thereof” (Sloan Kettering Institute for Cancer Research, priority 1999, published 2004)

tested on: Murine erythroleukemia (MEL) cells; assay: MEL cell differentiation assay (benzidine assay, 5-day culture); type: cell-based; conditions: Table 2, "No inh" = words
Protocol: (§1) Murine erythroleukemia (MEL) cell differentiation. The MEL cell differentiation assay was used to assess the ability of Compound 1 to induce terminal differentiation. MEL cells (logarithmically dividing) were cultured with the indicated concentrations of Compound 1. Following a 5-day culture period, cell growth was determined using a Coulter Counter and differentiation was determined microscopically using the benzidine assay to determine hemoglobin protein accumulation on a per cell basis.
as §1, with “The” for “Murine erythroleukemia (MEL) cell differentiation. The”, “2” for “1”, “2.” for “1.”, “period” for “period, cell growth was determined using a Coulter Counter and”
as §1, with “The” for “Murine erythroleukemia (MEL) cell differentiation. The”, “3” for “1”, “3.” for “1.”, “period” for “period, cell growth was determined using a Coulter Counter and”
as §1, with “The” for “Murine erythroleukemia (MEL) cell differentiation. The”, “4” for “1”, “4.” for “1.”, “period” for “period, cell growth was determined using a Coulter Counter and”, “accumulaiton” for “accumulation”
All the compounds which were prepared were tested. […] Table 2 is compiled from experiments similar to the experiments described in Examples 7-10 above.

Compound	MEL cell growth (cell count) [cells/ml × 10^−5]
O=C(CCCCCC(C(=O)Nc1ccc2ncccc2c1)C(=O)Nc1ccc2ncccc2c1)NO [Structure 692]	18.0
O=C(/C=C/c1cccc(CC(=O)Nc2ccccc2)c1)NO [Structure 689]	2.0
O=C(/C=C/c1cccc(C(C(=O)Nc2cccc3cccnc23)C(=O)Nc2cccc3cccnc23)c1)NO [Structure 690]	2.5
